Laboratory results from US20020128311A1, “Halocyanoacetamide antimicrobial compositions” (priority 2000, published 2002).

Columns and labels:
[1] = Stability of CMIT and DBNPA mixtures in GTA, stored at 50° C., HPLC; type: physicochemical; settings: […]% DBNPA, […]% CMIT/MIT mixture
Description: Surfactants were TweenTM 20, TritonTM DF-12 or TritonTM CF-10. The compositions were stored at 50° C. for 4 weeks and the concentrations of active ingredients ([…]) in the compositions were determined by HPLC at the indicated time intervals.

[2] = Solubility in glyceryl triacetate; settings: based on total amount of compound and solvent
[3] = Stability of DCOIT and DBNPA mixtures in GTA, stored at 40° C., HPLC; type: physicochemical; settings: 4% DCOIT, […]% DBNPA
Description: […] […] Surfactants were TweenTM 20, TritonTM DF-12 or TritonTM CF-10. These compositions were stored at 40° C. for 6 weeks and the concentrations of active ingredients ([…]) in the compositions were determined by HPLC at the indicated time intervals.

[4] = Freeze/thaw stability of DCOIT/DBNPA/surfactant/GTA compositions, HPLC; type: physicochemical; settings: for % DCOIT retained after Freezing and Thawing: thawed at 25° C. 5 hours, three times
Description: Samples were prepared to test the freeze/thaw stability of compositions of the present invention. The freeze/thaw test was conducted for compositions of […], surfactant and GTA prepared in Example 4. Samples (20 g each) were stored at -10° C. or -25° C. for 19 hours to be frozen; samples were then stored at 25° C. for 5 hours to be thawed. This sequence was repeated three times. Then the concentrations of active ingredients ([…]) in the compositions were determined by HPLC.

## Cn1sc(Cl)cc1=O [CMIT, 5-chloro-2-methyl-3-isothiazolone]
[1]; 5% Triton CF-10, 45% GTA, 0 Time
  % CMIT retained: 100%
[1]; 5% Triton CF-10, 45% GTA, 1 Week
  % CMIT retained: 98%
[1]; 5% Triton CF-10, 45% GTA, 2 Weeks
  % CMIT retained: 96%
[1]; 5% Triton CF-10, 45% GTA, 3 Weeks
  % CMIT retained: 86%
[1]; 5% Triton CF-10, 45% GTA, 4 Weeks
  % CMIT retained: 84%
[1]; 5% Triton DF-12, 45% GTA, 0 Time
  % CMIT retained: 100%
[1]; 5% Triton DF-12, 45% GTA, 1 Week
  % CMIT retained: 100%
[1]; 5% Triton DF-12, 45% GTA, 2 Weeks
  % CMIT retained: 99%
[1]; 5% Triton DF-12, 45% GTA, 3 Weeks
  % CMIT retained: 87%
[1]; 5% Triton DF-12, 45% GTA, 4 Weeks
  % CMIT retained: 85%
[1]; 5% Tween 20, 45% GTA, 0 Time
  % CMIT retained: 100%
[1]; 5% Tween 20, 45% GTA, 1 Week
  % CMIT retained: 100%
[1]; 5% Tween 20, 45% GTA, 2 Weeks
  % CMIT retained: 80%
[1]; 5% Tween 20, 45% GTA, 3 Weeks
  % CMIT retained: 75%
[1]; 5% Tween 20, 45% GTA, 4 Weeks
  % CMIT retained: 74%
[1]; no surfactant, 50% GTA, 0 Time
  % CMIT retained: 100%
[1]; no surfactant, 50% GTA, 1 Week
  % CMIT retained: 102%
[1]; no surfactant, 50% GTA, 2 Weeks
  % CMIT retained: 97%
[1]; no surfactant, 50% GTA, 3 Weeks
  % CMIT retained: 90%
[1]; no surfactant, 50% GTA, 4 Weeks
  % CMIT retained: 88%

## CCCCCCCCn1sc(Cl)c(Cl)c1=O [DCOIT]
[2]; at 5° C.
  solubility in glyceryl triacetate: 8 % by weight
[2]; at 25° C.
  solubility in glyceryl triacetate: 8 % by weight
[2]; at 40° C.
  solubility in glyceryl triacetate: 20 % by weight
[3]; 5% Triton CF-10, 66% GTA, 4 Weeks
  % DCOIT retained: 96.0%
[3]; 5% Triton CF-10, 66% GTA, 6 Weeks
  % DCOIT retained: 95.6%
[3]; 5% Triton CF-10, 66% GTA, Time 0
  % DCOIT retained: 100.0%
[3]; 5% Triton DF-12, 66% GTA, 4 Weeks
  % DCOIT retained: 100.0%
[3]; 5% Triton DF-12, 66% GTA, 6 Weeks
  % DCOIT retained: 98.2%
[3]; 5% Triton DF-12, 66% GTA, Time 0
  % DCOIT retained: 100.0%
[3]; 5% Tween 20, 66% GTA, 4 Weeks
  % DCOIT retained: 94.3%
[3]; 5% Tween 20, 66% GTA, 6 Weeks
  % DCOIT retained: 94.0%
[3]; 5% Tween 20, 66% GTA, Time 0
  % DCOIT retained: 100.0%
[4]; Example 4 composition with Triton CF-10, frozen at −10° C. 19 hours
  % DCOIT retained after Freezing and Thawing: 100.0%
[4]; Example 4 composition with Triton CF-10, frozen at −25° C. 19 hours
  % DCOIT retained after Freezing and Thawing: 100.0%
[4]; Example 4 composition with Triton DF-12, frozen at −10° C. 19 hours
  % DCOIT retained after Freezing and Thawing: 100.0%
[4]; Example 4 composition with Triton DF-12, frozen at −25° C. 19 hours
  % DCOIT retained after Freezing and Thawing: 100.0%
[4]; Example 4 composition with Tween 20, frozen at −10° C. 19 hours
  % DCOIT retained after Freezing and Thawing: 100.0%
[4]; Example 4 composition with Tween 20, frozen at −25° C. 19 hours
  % DCOIT retained after Freezing and Thawing: 100.0%
[4]; in GTA solutions in the presence of surfactants
  physical stability (appearance) during freeze/thaw cycling: clear solution, no precipitation or phase separation observed
